“Also recorded” adds a separate entry of the source. Like-named read-outs stand apart in the source and are kept apart here.
Key:
[1] = tested on: podocytes of the organoid glomeruli; assay: Immunofluorescence analysis of bio-printed organoid sections after Doxorubicin treatment; format: cell-based, human; conditions: 10 μM Doxorubicin, 72 hours
Method: For paraffin-embedded organoids, deparaffinized sections were antigen retrieved in citrate buffer, pH 6.0 (Diagnostic BioSystems, Pleasonton, CA #K035) then blocked in 5% chick serum diluted in TBS-T (v/v) prior to immunofluorescence. For whole mount organoids, organoid harvest, fixation and blocking, and immunofluorescence of prepared sections and whole organoids was performed as described previously (Vanslambrouck J M, et al. J Am Soc Nephrol 30, 1811-1823 (2019)). Images were obtained as described in Vanslambrouck J M, et al. or using an Andor spinning disk confocal microscope with Nikon 25×1.05NA silicone immersion objective.
Doxorubicin (Sigma-Aldrich, D1515) stock solution was prepared in DMSO. Amikacin, Tobramycin, Gentamycin, Neomycin, and Streptomycin were all procured through Sigma Aldrich (St. Louis, Mo.) and prepared as a 25 mg/ml solution in APEL media. Dosing for 6-well nephrotoxicity studies was performed by initially diluting doxorubicin DMSO stock in APEL media, and subsequently diluting further with additional media to achieve concentrations ranging from 0.3 to 10 μM. Dosing for 96-well nephrotoxicity evaluation was performed by serial dilution. For Doxorubicin, serial dilution of DMSO stocks was added to APEL media to achieve concentrations ranging from 24 nM to 25 μM. […]

[2] = tested on: bio-printed kidney organoids; assay: Organoid viability assessment by ATP content (CellTiter-Glo / CellTiter-Glo 3D) after drug treatment; conditions: for IC50: Homo sapiens, 72 h; for Cell viability as measured by cellular ATP content: 96-well format, 72-hour treatment, wide concentration range (1.5 μg/mL to 25 mg/mL)
Method: (§1) Doxorubicin (Sigma-Aldrich, D1515) stock solution was prepared in DMSO. Amikacin, Tobramycin, Gentamycin, Neomycin, and Streptomycin were all procured through Sigma Aldrich (St. Louis, Mo.) and prepared as a 25 mg/ml solution in APEL media. Dosing for 6-well nephrotoxicity studies was performed by initially diluting doxorubicin DMSO stock in APEL media, and subsequently diluting further with additional media to achieve concentrations ranging from 0.3 to 10 μM. Dosing for 96-well nephrotoxicity evaluation was performed by serial dilution. For Doxorubicin, serial dilution of DMSO stocks was added to APEL media to achieve concentrations ranging from 24 nM to 25 μM. Aminoglycoside stock solutions were diluted serially with APEL media to generate dosing concentrations ranging from 1.5 μg/mL to 25 mg/mL. Drug dosing was initiated after day 21 or day 22 of the differentiation protocol. Dosing was performed by applying the full well volume of APEL medium±test article to the apical basket of a Transwell permeable support (4 mL for 6-well plates, 300 μL for 96-well plates). As media containing test articles was added to the Transwell permeable support, the organoids were fully submerged and exposed to any added compounds as the apical and basolateral compartments equilibrated. Drug-supplemented medium was replaced every other day until designated harvest time point.
Kidney organoid viability following drug treatment was assessed by measuring ATP content with CellTiter-Glo or CellTiter-Glo 3D viability assays (Promega, Madison, Wis., USA). In brief, harvested organoids from bio-printed in 6-well plates were individually loaded into Precellys tubes (Bertin Technologies, Bretonneux, France) with CellTiter-Glo buffer and dissociated using a Precellys 24 tissue homogenizer (Bertin Technologies, Bretonneux, France). Homogenized organoids were incubated at room temperature for 10 minutes, then centrifuged at 1000 g for 2 minutes to separate buffer from homogenizing beads. Supernatants were transferred to a white opaque 96-well plate for luminescence measurement on a microplate reader (BMG Labtech, Germany). […] To analyse the ATP content in organoids bio-printed on 96-well plates, all media was aspirated and CellTiter-Glo 3D reagent was added to the apical chamber of Transwell permeable support. The plate was shaken at 400 rpm for 5 minutes at room temperature, and then allowed to sit for 25 minutes prior to luminescent measurement in a white opaque 96-well plate on a microplate reader (BMG Labtech, Germany). Viability analysis was reported as percent of control by normalizing the ATP content of treated organoids relative to control organoids. […]

[3] = tested on: bio-printed kidney organoids; assay: Quantitative RT-PCR gene expression analysis following drug exposure; format: cell-based, human; conditions: 72 hours
Method: as §1
Total RNA extraction from kidney organoids following drug exposure was performed using an Rneasy Mini kit (Qiagen, Germany) per manufacturer's instructions. RNA was quantified with spectrophotometry with a NanoDrop 2000 (Thermo Fisher, Carlsbad, Calif.). To analyse gene expression, TaqMan Fast One-Step qPCR Master Mix (Applied Biosystems, Foster City, Calif.), TaqMan Probes for genes of interest (ThermoFisher, Carlsbad, Calif.), and house-keeping gene probes (Applied Biosystems, Foster City, Calif.) were combined in assigned wells with RNA. All qPCR reactions were performed and analysed on a StepOnePlus qRT-PCR system (Applied Biosystems, Foster City, Calif.). All data was normalized to house-keeping gene GAPDH prior to normalizing to control samples.

[4] = 10 μM Doxorubicin, normalized to GAPDH and control

COc1cccc2c1C(=O)c1c(O)c3c(c(O)c1C2=O)C[C@@](O)(C(=O)CO)C[C@@H]3O[C@H]1C[C@H](N)[C@H](O)[C@H](C)O1 [Doxorubicin]
Caspase 3 activation (cleaved caspase 3, apoptosis) in podocytes [1]: induction of apoptosis; also recorded: specific activation of caspase 3 | MAFB staining within podocytes of organoid glomeruli [1]: podocyte specific loss of MAFB expression; also recorded: loss of MAFB staining | IC50 ([2]; read-out: 6-well IC50 (viability, ATP content)): 3.9 ± 1.8 µM | IC50 ([2]; read-out: 96-well IC50 (viability, ATP content)): 3.1 ± 1 µM | Expression of podocyte marker NPHS1 ([3]; 2 μM Doxorubicin): downregulated | Expression of podocyte marker PODXL ([3]; 2 μM Doxorubicin): downregulated | Expression of proximal tubule gene CUBN ([3]; 2 μM or 10 μM Doxorubicin): only downregulated in response to 10 μM Doxorubicin | Expression of apoptotic indicator Bcl2-associated X protein (BAX) [3, 4]: upregulation | Expression of kidney injury molecule KIM1 (HAVCR) [3, 4]: upregulation

Gentamycin
Cell viability as measured by cellular ATP content [2]: decreased in a concentration-dependent fashion

Neomycin
Cell viability as measured by cellular ATP content [2]: decreased in a concentration-dependent fashion
